Assay results from patent US20260306644A1, “ANTIBODY RECRUITING MOLECULES FOR THE TREATMENT OF CORONAVIRUS DISEASE-19” (priority 2023, published 2026).
“And” between values parts separate entries of the source, which are not always exact repeats. Equal entries are not always repeated. Where two headings read alike, the source gives them in different places. Positions of bridges follow the written chain, without caps; N, C: chain ends. No end group written: not given here.

How the values were obtained:
[1] = target: T1, SARS-CoV-2 Spike A (wild-type) (Severe acute respiratory syndrome coronavirus 2, UniProt P0DTC2); assay: MSD ACE2 competition assay (inhibition of Spike binding with ACE2, ECL), A (wild-type)
T1 construct: purchased Meso Scale Diagnostics, LLC V-PLEX SARS-CoV-2 Panel 13 (ACE2) Kit / Panel 23 (ACE2) Kit

SARS-CoV-2 Spike protein = SARS-CoV-2 Spike protein (Severe acute respiratory syndrome coronavirus 2, UniProt P0DTC2); assay: Ternary binding of SARS-CoV-2 Spike protein (293T cells expressing Spike-GFP, IgG-AF647, flow cytometry); format: cell-based; conditions: IgG-AF647 10 μg/ml, repeat values/batches listed separately, read-out: SARS-CoV-2 Ternary binding EC50
[2] = test system: Spike RBD coated magnetic beads / RAW 264.7 macrophages; assay: Antibody-dependent cellular phagocytosis (ADCP), RAW 264.7 macrophages and Spike RBD coated magnetic beads, flow cytometry; format: cell-based; conditions: 37° C., 2 hours, read-out: SARS-COV-2 ADCP EC50
Description: The ability of the compounds to mediate antibody-dependent cellular phagocytosis (ADCP) was assessed using RAW 264.7 macrophages and Spike RBD coated magnetic beads (https://www.acrobiosystems.com/P3194-SARS-CoV-2-Spike-RBD-coupled-Magnetic-Beads.html). Spike RBD coated magnetic beads (3 ul per well) were added to each well of a round bottom 96-well plates. RAW264.7 cells (50,000 cells per well) were added to the beads. Next, the compounds were administered to predetermined final concentrations. The cell-bead mixtures were incubated at 37° C. for 2 hours. The mixtures were then analyzed by flow cytometry.

[3] = IC50 Wild Type, Wild Type Spike
[4] = 293T cells expressing Spike-GFP
[5] = read-out: IC50 Wild Type, Wild Type Spike

With “DKEWILQKIYEIMRLLDELGHAEASMRVSDLIYEFMKKGDERLLEEAERLLEEVERGGGGGGGGDCAWHLGELVWCT-NH2 (disulfide 66-76) [Compound 169]” the IC50 [1, 3] was 1.22 nM, the EC50 (SARS-CoV-2 Spike protein; [4]) was 0.01 nM and the EC50 [2] was 0.53 nM.

In the case of “Ac-DKEWILQKIYEIMRLLDELGHAEASMRVSDLIYEFMKKGDERLLEEAERLLEEVERGGGGDCAWHLGELVWCT-NH2 (disulfide 62-72) [Compound 144]”, the IC50 [1, 3] is reported as 1.17 nM, the EC50 (SARS-CoV-2 Spike protein; [4]) is reported as 0.03 nM and the EC50 [2] is reported as 0.61 nM.

With “DKEWILQKIYEIMRLLDELGHAEASMRVSDLIYEFMKKGDERLLEEAERLLEEVERGGGGDCAWHLGELVWCT-NH2 (disulfide 62-72) [Compound 171]” the IC50 [1, 3] was 1.25 nM, the EC50 (SARS-CoV-2 Spike protein; [4]) was 0.01 nM and the EC50 [2] was 0.41 nM.

In the case of “Ac-DKEWILQKIYEIMRLLDELGHAEASMRVSDLIYEFMKKGDERLLEEAERLLEEVEREAAAKEAAAKDCAWHLGELVWCT-NH2 (disulfide 68-78) [Compound 146]”, the IC50 [1, 3] is reported as 1 nM, the EC50 (SARS-CoV-2 Spike protein; […]) is reported as 0.02 nM and the EC50 [2] is reported as 0.27 nM.

CC[C@H](C)[C@H](NC(=O)[C@H](CC(C)C)NC(=O)[C@H](CC(=O)O)NC(=O)[C@H](CO)NC(=O)[C@@H](NC(=O)[C@H](CCCNC(=N)N)NC(=O)[C@H](CCSC)NC(=O)[C@H](CO)NC(=O)[C@H](C)NC(=O)[C@H](CCC(=O)O)NC(=O)[C@H](C)NC(=O)[C@H](Cc1c[nH]cn1)NC(=O)CNC(=O)[C@H](CC(C)C)NC(=O)[C@H](CCC(=O)O)NC(=O)[C@H](CC(=O)O)NC(=O)[C@H](CC(C)C)NC(=O)[C@H](CC(C)C)NC(=O)[C@H](CCCNC(=N)N)NC(=O)[C@H](CCSC)NC(=O)[C@@H](NC(=O)[C@H](CCC(=O)O)NC(=O)[C@H](Cc1ccc(O)cc1)NC(=O)[C@@H](NC(=O)[C@H](CCCCN)NC(=O)[C@H](CCC(N)=O)NC(=O)[C@H](CC(C)C)NC(=O)[C@@H](NC(=O)[C@H](Cc1c[nH]c2ccccc12)NC(=O)[C@H](CCC(=O)O)NC(=O)[C@H](CCCCN)NC(=O)[C@H](CC(=O)O)NC(C)=O)[C@@H](C)CC)[C@@H](C)CC)[C@@H](C)CC)C(C)C)C(=O)N[C@@H](Cc1ccc(O)cc1)C(=O)N[C@@H](CCC(=O)O)C(=O)N[C@@H](Cc1ccccc1)C(=O)N[C@@H](CCSC)C(=O)N[C@@H](CCCCN)C(=O)N[C@@H](CCCCN)C(=O)NCC(=O)N[C@@H](CC(=O)O)C(=O)N[C@@H](CCC(=O)O)C(=O)N[C@@H](CCCNC(=N)N)C(=O)N[C@@H](CC(C)C)C(=O)N[C@@H](CC(C)C)C(=O)N[C@@H](CCC(=O)O)C(=O)N[C@@H](CCC(=O)O)C(=O)N[C@@H](C)C(=O)N[C@@H](CCC(=O)O)C(=O)N[C@@H](CCCNC(=N)N)C(=O)N[C@@H](CC(C)C)C(=O)N[C@@H](CC(C)C)C(=O)N[C@@H](CCC(=O)O)C(=O)N[C@@H](CCC(=O)O)C(=O)N[C@H](C(=O)N[C@@H](CCC(=O)O)C(=O)N[C@@H](CCCNC(=N)N)C(=O)NCCOCCOCCOCCOCCOCCOCCOCCOCCC(=O)NCCOCCOCCOCCOCCOCCOCCOCCOCCC(=O)N[C@@H](CC(=O)O)C(=O)N[C@H]1CSSC[C@@H](C(=O)N[C@H](C(N)=O)[C@@H](C)O)NC(=O)[C@H](Cc2c[nH]c3ccccc23)NC(=O)[C@H](C(C)C)NC(=O)[C@H](CC(C)C)NC(=O)[C@H](CCC(=O)O)NC(=O)CNC(=O)[C@H](CC(C)C)NC(=O)[C@H](Cc2c[nH]cn2)NC(=O)[C@H](Cc2c[nH]c3ccccc23)NC(=O)[C@H](C)NC1=O)C(C)C [Compound 124] showed an EC50 [2] of 0.43 nM.

With CC[C@H](C)[C@H](NC(=O)[C@H](CC(C)C)NC(=O)[C@H](CC(=O)O)NC(=O)[C@H](CO)NC(=O)[C@@H](NC(=O)[C@H](CCCNC(=N)N)NC(=O)[C@H](CCSC)NC(=O)[C@H](CO)NC(=O)[C@H](C)NC(=O)[C@H](CCC(=O)O)NC(=O)[C@H](C)NC(=O)[C@H](Cc1c[nH]cn1)NC(=O)CNC(=O)[C@H](CC(C)C)NC(=O)[C@H](CCC(=O)O)NC(=O)[C@H](CC(=O)O)NC(=O)[C@H](CC(C)C)NC(=O)[C@H](CC(C)C)NC(=O)[C@H](CCCNC(=N)N)NC(=O)[C@H](CCSC)NC(=O)[C@@H](NC(=O)[C@H](CCC(=O)O)NC(=O)[C@H](Cc1ccc(O)cc1)NC(=O)[C@@H](NC(=O)[C@H](CCCCN)NC(=O)[C@H](CCC(N)=O)NC(=O)[C@H](CC(C)C)NC(=O)[C@@H](NC(=O)[C@H](Cc1c[nH]c2ccccc12)NC(=O)[C@H](CCC(=O)O)NC(=O)[C@H](CCCCN)NC(=O)[C@H](CC(=O)O)NC(=O)[C@@H](CCC(=O)O)NC(=O)[C@@H]1CSCC(=O)N[C@@H](C)C(=O)N[C@@H](CO)C(=O)N[C@@H](Cc2ccc(O)cc2)C(=O)N[C@@H](Cc2c[nH]cn2)C(=O)N[C@@H](CC(C)C)C(=O)NCC(=O)N[C@@H](CCC(=O)O)C(=O)N[C@@H](CC(C)C)C(=O)N[C@@H](C(C)C)C(=O)N[C@@H](Cc2c[nH]c3ccccc23)C(=O)N2Cc3ccccc3C[C@H]2C(=O)NC(C)(C)C(=O)N1)[C@@H](C)CC)[C@@H](C)CC)[C@@H](C)CC)C(C)C)C(=O)N[C@@H](Cc1ccc(O)cc1)C(=O)N[C@@H](CCC(=O)O)C(=O)N[C@@H](Cc1ccccc1)C(=O)N[C@@H](CCSC)C(=O)N[C@@H](CCCCN)C(=O)N[C@@H](CCCCN)C(=O)NCC(=O)N[C@@H](CC(=O)O)C(=O)N[C@@H](CCC(=O)O)C(=O)N[C@@H](CCCNC(=N)N)C(=O)N[C@@H](CC(C)C)C(=O)N[C@@H](CC(C)C)C(=O)N[C@@H](CCC(=O)O)C(=O)N[C@@H](CCC(=O)O)C(=O)N[C@@H](C)C(=O)N[C@@H](CCC(=O)O)C(=O)N[C@@H](CCCNC(=N)N)C(=O)N[C@@H](CC(C)C)C(=O)N[C@@H](CC(C)C)C(=O)N[C@@H](CCC(=O)O)C(=O)N[C@@H](CCC(=O)O)C(=O)N[C@H](C(=O)N[C@@H](CCC(=O)O)C(=O)N[C@@H](CCCNC(=N)N)C(=O)O)C(C)C [Compound 130] the EC50 [2] was 1.3 nM and 1.5 nM.

With CC[C@H](C)[C@H](NC(=O)[C@H](CC(C)C)NC(=O)[C@H](CC(=O)O)NC(=O)[C@H](CO)NC(=O)[C@@H](NC(=O)[C@H](CCCNC(=N)N)NC(=O)[C@H](CCSC)NC(=O)[C@H](CO)NC(=O)[C@H](C)NC(=O)[C@H](CCC(=O)O)NC(=O)[C@H](C)NC(=O)[C@H](Cc1c[nH]cn1)NC(=O)CNC(=O)[C@H](CC(C)C)NC(=O)[C@H](CCC(=O)O)NC(=O)[C@H](CC(=O)O)NC(=O)[C@H](CC(C)C)NC(=O)[C@H](CC(C)C)NC(=O)[C@H](CCCNC(=N)N)NC(=O)[C@H](CCSC)NC(=O)[C@@H](NC(=O)[C@H](CCC(=O)O)NC(=O)[C@H](Cc1ccc(O)cc1)NC(=O)[C@@H](NC(=O)[C@H](CCCCN)NC(=O)[C@H](CCC(N)=O)NC(=O)[C@H](CC(C)C)NC(=O)[C@@H](NC(=O)[C@H](Cc1c[nH]c2ccccc12)NC(=O)[C@H](CCC(=O)O)NC(=O)[C@H](CCCCN)NC(=O)[C@@H](N)CC(=O)O)[C@@H](C)CC)[C@@H](C)CC)[C@@H](C)CC)C(C)C)C(=O)N[C@@H](Cc1ccc(O)cc1)C(=O)N[C@@H](CCC(=O)O)C(=O)N[C@@H](Cc1ccccc1)C(=O)N[C@@H](CCSC)C(=O)N[C@@H](CCCCN)C(=O)N[C@@H](CCCCN)C(=O)N[C@@H](CC(=O)O)C(=O)N[C@H]1CSSC[C@@H](C(=O)N[C@H](C(=O)O)[C@@H](C)O)NC(=O)[C@H](Cc2c[nH]c3ccccc23)NC(=O)[C@H](C(C)C)NC(=O)[C@H](CC(C)C)NC(=O)[C@H](CCC(=O)O)NC(=O)CNC(=O)[C@H](CC(C)C)NC(=O)[C@H](Cc2c[nH]cn2)NC(=O)[C@H](Cc2c[nH]c3ccccc23)NC(=O)[C@H](C)NC1=O [Compound 115] the IC50 [1, 3] was 45.7 nM and the EC50 (SARS-CoV-2 Spike protein; [4]) was 0.34 nM and 0.36 nM and 0.23 nM and 0.26 nM.

In the case of “Ac-QKIYEICRLLDELGHAEASMRCSDLIYEFMKKGDCAWHLGELVWCT-NH2 (disulfide 7-22, 35-45) [Compound 140]”, the IC50 [1, 5] is reported as 1560 nM and the EC50 (SARS-CoV-2 Spike protein; [4]) is reported as greater than 100 nM.

With “Ac-DKEWILQKIYEIMRLLDELGHAEASMRVSDLIYEFMKKGGGGGGGGGDCAWHLGELVWCT (disulfide 49-59) [Compound 166]” the IC50 [1, 5] was 16.6 nM and the EC50 (SARS-CoV-2 Spike protein; [4]) was 0.23 nM.

In the case of CC[C@H](C)[C@H](NC(=O)[C@H](CC(C)C)NC(=O)[C@H](CC(=O)O)NC(=O)[C@H](CO)NC(=O)[C@@H](NC(=O)[C@H](CCCNC(=N)N)NC(=O)[C@H](CCSC)NC(=O)[C@H](CO)NC(=O)[C@H](C)NC(=O)[C@H](CCC(=O)O)NC(=O)[C@H](C)NC(=O)[C@H](Cc1c[nH]cn1)NC(=O)CNC(=O)[C@H](CC(C)C)NC(=O)[C@H](CCC(=O)O)NC(=O)[C@H](CC(=O)O)NC(=O)[C@H](CC(C)C)NC(=O)[C@H](CC(C)C)NC(=O)[C@H](CCCNC(=N)N)NC(=O)[C@H](CCSC)NC(=O)[C@@H](NC(=O)[C@H](CCC(=O)O)NC(=O)[C@H](Cc1ccc(O)cc1)NC(=O)[C@@H](NC(=O)[C@H](CCCCN)NC(=O)[C@H](CCC(N)=O)NC(=O)[C@H](CC(C)C)NC(=O)[C@@H](NC(=O)[C@H](Cc1c[nH]c2ccccc12)NC(=O)[C@H](CCC(=O)O)NC(=O)[C@H](CCCCN)NC(=O)[C@H](CC(=O)O)NC(C)=O)[C@@H](C)CC)[C@@H](C)CC)[C@@H](C)CC)C(C)C)C(=O)N[C@@H](Cc1ccc(O)cc1)C(=O)N[C@@H](CCC(=O)O)C(=O)N[C@@H](Cc1ccccc1)C(=O)N[C@@H](CCSC)C(=O)N[C@@H](CCCCN)C(=O)N[C@@H](CCCCN)C(=O)NCC(=O)NCC(=O)NCC(=O)NCC(=O)N[C@@H](CC(=O)O)C(=O)N[C@H]1CSSC[C@@H](C(=O)N[C@H](C(=O)O)[C@@H](C)O)NC(=O)[C@H](Cc2c[nH]c3ccccc23)NC(=O)[C@H](C(C)C)NC(=O)[C@H](CC(C)C)NC(=O)[C@H](CCC(=O)O)NC(=O)CNC(=O)[C@H](CC(C)C)NC(=O)[C@H](Cc2c[nH]cn2)NC(=O)[C@H](Cc2c[nH]c3ccccc23)NC(=O)[C@H](C)NC1=O [Compound 107], the IC50 [1, 3] is reported as 36.2 nM and the EC50 (SARS-CoV-2 Spike protein; [4]) is reported as 3.1 nM and 4.5 nM.
